Earlier results as cited in US8377476B2, “Butenafine hydrochloride-containing aqueous patch” (Teikoku Seiyaku Co., Ltd., priority 2008, dated 2013).
Where a name gives a salt, the structure may show the parent alone. Read-outs that look alike come from different tables or passages of the source.

## CN(Cc1ccc(C(C)(C)C)cc1)Cc1cccc2ccccc12 [butenafine hydrochloride]
hydrochloride
  Water-solubility: low water-solubility
Listed as Butenafine hydrochloride
  Water-solubility: extremely poor water-solubility
